Measurements taken from US9675714B1, “Graphene based theranostics for tumor targeted drug/gene delivery and imaging” (University of South Florida, priority 2013, dated 2017).

Test system: A549 lung cancer cells
Assay: Cellular uptake and intracellular drug release by confocal laser scanning microscopy
Assay type: cell-based
Conditions: 20 h incubation
Procedure: FIGS. 15A-15F show confocal microscopic images of A549cells after 20 h incubation with doxorubicin (15A-15C) or doxorubicin-CMG nanoparticles (15D-15F). […] Nuclei were stained with DAPI as a control (15A and […]). DAPI and doxorubicin images were merged for comparison (15C-15F).
To test the drug delivery capacity of CMG NPs, DOX was loaded into CMG nanoparticles by physical adsorption. The UV-Vis spectrum of DOX-CMG nanoparticles was used to confirm the loading of DOX onto CMG nanoparticles. […] DOX loading was confirmed by the presence of the characteristic absorbance peak of DOX-CMG at 485 nm (FIG. 12,b), which corresponded to the peak of free DOX (FIG. 12,c). The hydrodynamic diameter of DOX-loaded CMG nanoparticles was about 91 nm and was similar to the CMGs alone (FIGS. 5A-5F). The loading capacity of CMG nanoparticles for DOX was investigated by mixing a fixed concentration of CMG (2 mg/mL) with various initial DOX concentrations as shown in FIG. 13. […] The drug-release kinetics of DOX-CMG nanoparticles was determined at pH about 5.1 and about 7.4 (FIG. 14). […] To determine the effectiveness of the DOX-CMG nanoparticles in killing A549 cancer cells, cells were treated with DOX-CMG nanoparticles with increasing concentrations of DOX, or free DOX, for about 72 h and analyzed using the Presto Blue cell viability assay.

SMILES: COc1cccc2c1C(=O)c1c(O)c3c(c(O)c1C2=O)C[C@@](O)(C(=O)CO)C[C@@H]3O[C@H]1C[C@H](N)[C@H](O)[C@H](C)O1 [DOX, doxorubicin]
- subcellular localization of DOX: concentrated in the nuclei
